Drawing on patent US9376418B2, “Substituted pyridine spleen tyrosine kinase (SYK) inhibitors” (Merck Sharp & Dohme Corp., priority 2012, dated 2016), this text covers IC50 for 34 compounds.

For this assay, the target named is T1, recombinant human GST-SYK (Homo sapiens, UniProt P43405).
T1 construct: purchased Carna Biosciences 08-176
Description: Homogeneous Time-Resolved Fluorescence (HTRF) assay for the recombinant human Syk enzyme. The format is biochemical. As to conditions: HTRF assay, recombinant human GST-SYK; IC50 given as class symbols; read-out: rhSYK Activity. An outline of the steps:
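Phosphotyrosine product from a biotinylated Syk substrate peptide was detected by HTRF (europium antibody/SA-APC, read after 30 min) following a 45-minute room-temperature reaction at 25 μM ATP, with […] preincubated 10 minutes with inhibitor.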
A general note: In TR-FRET formats the signal depends on donor and acceptor labels being close together.
On to `Cc1cc(Nc2nccc(C(F)(F)F)n2)cc(-c2ccc(N[C@@H](CCS(C)(=O)=O)C(=O)O)nc2)c1` [Example 7.74, (2S)-4-(methylsulfonyl)-2-{[5-(3-methyl-5-{[4-(trifluoromethyl)pyrimidin-2-yl]amino}phenyl)pyridin-2-yl]amino}butanoic acid], for which the IC50 was less than 0.1 µM.

In the case of `Cc1cc(Nc2nccc(C(F)(F)F)n2)cc(-c2ccnc(N3CCC4(CCN(C)C4=O)CC3)c2)c1` [Example 15.31, 2-methyl-8-[4-(3-methyl-5-{[4-(trifluoromethyl)pyrimidin-2-yl]amino}phenyl)pyridin-2-yl]-2,8-diazaspiro[4.5]decan-1-one], the IC50 was in the range of 0.1 to 1 µM.

On to `Cc1cc(Nc2nccc(C(F)(F)F)n2)cc(-c2ccc(N3CCN(S(C)(=O)=O)CC3)nc2)c1` [Example 7.48, N-(3-methyl-5-{6-[4-(methylsulfonyl)piperazin-1-yl]pyridin-3-yl}phenyl)-4-(trifluoromethyl)pyrimidin-2-amine], for which the IC50 was 0.1 to 1 µM.

Turning to `COc1ccnc(Nc2cc(C)cc(-c3ccc(N[C@H]4CC[C@H](C(=O)O)CC4)nc3)c2)n1` [Example 2.105, trans-4-[(5-{3-[(4-methoxypyrimidin-2-yl)amino]-5-methylphenyl}pyridin-2-yl)amino]cyclohexanecarboxylic acid], the IC50 was less than 0.1 µM.

Consider `CCOC(=O)C1(C)CCC(O)(c2ccc(-c3cc(C)cc(Nc4nccc(C(F)(F)F)n4)c3)cn2)CC1` (stereo not shown) [Example 9.44, ethyl 4-hydroxy-1-methyl-4-[5-(3-methyl-5-{[4-(trifluoromethyl)pyrimidin-2-yl]amino}phenyl)pyridin-2-yl]cyclohexanecarboxylate], for which the IC50 lay in the range of 0.1 to 1 µM.

On to `CCOC(=O)c1cncc(-c2cc(C)cc(Nc3nccc(C(F)(F)F)n3)c2)c1` [Example 2.68, ethyl 5-(3-methyl-5-{[4-(trifluoromethyl)pyrimidin-2-yl]amino}phenyl)pyridine-3-carboxylate], for which the IC50 was less than 0.1 µM.

With `Cc1cc(Nc2nccc(C(F)(F)F)n2)cc(-c2ccnc(NCC3CCC(=O)N3)c2)c1` (stereo not shown) [Example 15.83, 5-({[4-(3-methyl-5-{[4-(trifluoromethyl)pyrimidin-2-yl]amino}phenyl)pyridin-2-yl]amino}methyl)pyrrolidin-2-one], the IC50 was less than 0.1 µM.

On to `Cc1cc(Nc2ncc(Br)c(C(F)(F)F)n2)cc(-c2ccc(NC(C)(C)C(=O)O)nc2)c1` [Example 7.152], for which the IC50 was less than 0.1 µM.

On to `Cc1cc(Nc2nccc(C(F)(F)F)n2)cc(-c2cncc(NCCO)c2)c1` [Example 15.22, 2-{[5-(3-Methyl-5-{[4-(trifluoromethyl)pyrimidin-2-yl]amino}phenyl)pyridin-3-yl]amino}ethanol], for which the IC50 is less than 0.1 µM.

With `Cc1cc(Nc2nccc(C(F)(F)F)n2)cc(-c2ccc(CCC(=O)O)nc2)c1` [Example 13.2, 3-[5-(3-Methyl-5-{[4-(trifluoromethyl)pyrimidin-2-yl]amino}phenyl)pyridin-2-yl]propanoic acid], the IC50 was less than 0.1 µM.

On to `Cc1cc(Nc2nccc(C(F)(F)F)n2)cc(-c2ccc(N(C)[C@@H](C)C(=O)O)nc2)c1` [Example 7.104, N-methyl-N-[5-(3-methyl-5-{[4-(trifluoromethyl)pyrimidin-2-yl]amino}phenyl)pyridin-2-yl]-L-alanine], for which the IC50 was less than 0.1 µM.

Regarding `Cc1cc(Nc2nccc(C(F)(F)F)n2)cc(-c2ccnc(NCCN)c2)c1` [Example 15.41, N-[4-(3-methyl-5-{[4-(trifluoromethyl)pyrimidin-2-yl]amino}phenyl)pyridin-2-yl]ethane-1,2-diamine], the IC50 was less than 0.1 µM.

For `Cc1cc(Nc2nccc(C(F)(F)F)n2)cc(-c2ccc(NC(C)c3ccccn3)nc2)c1` (stereo not shown) [Example 7.19, N-(3-methyl-5-{6-[(1-pyridin-2-ylethyl)amino]pyridin-3-yl}phenyl)-4-(trifluoromethyl)pyrimidin-2-amine], the IC50 was in the range of 0.1 to 1 µM.

Consider `CCC(C)(C#N)Nc1ccc(-c2cc(C)cc(Nc3nccc(C(F)(F)F)n3)c2)cn1` (stereo not shown) [Example 18.1, 2-Methyl-2-{[5-(3-methyl-5-{[4-(trifluoromethyl)pyrimidin-2-yl]amino}phenyl)pyridin-2-yl]amino}butanenitrile], for which the IC50 is less than 0.1 µM.

Regarding `Cc1cc(Nc2nccc(C(F)(F)F)n2)cc(-c2ccc(N3CCC[C@H]3C(N)=O)nc2)c1` [Example 7.57, 1-[5-(3-methyl-5-{[4-(trifluoromethyl)pyrimidin-2-yl]amino}phenyl)pyridin-2-yl]-L-prolinamide], the IC50 was less than 0.1 µM.

Turning to `Cc1cc(Nc2nccc(C(F)(F)F)n2)cc(-c2ccc(C(=O)N(C)CC(O)CO)nc2)c1` (stereo not shown) [Example 16.56, N-(2,3-dihydroxypropyl)-N-methyl-5-(3-methyl-5-{[4-(trifluoromethyl)pyrimidin-2-yl]amino}phenyl)pyridine-2-carboxamide], the IC50 is less than 0.1 µM.

Regarding `COc1ccnc(Nc2cc(C)cc(-c3ccc(C(C)(O)[C@H]4CC[C@H](C(=O)O)CC4)nc3)c2)n1` (single isomer, unassigned) [Example 9.17, trans-4-[(1R or 1S)-1-hydroxy-1-(5-{3-[(4-methoxypyrimidin-2-yl)amino]-5-methylphenyl}pyridin-2-yl)ethyl]cyclohexanecarboxylic acid], the IC50 is less than 0.1 µM.

Turning to `Cc1cc(Nc2nccc(C(F)(F)F)n2)cc(-c2cncc(NCCN3CCOCC3)c2)c1` [Example 15.16], the IC50 is less than 0.1 µM.

For the compound `Cc1cc(Nc2nccc(C(F)(F)F)n2)cc(-c2ccc(C(=O)N3CCOC3=O)nc2)c1` [Example 16.3, 3-{[5-(3-Methyl-5-{[4-(trifluoromethyl)pyrimidin-2-yl]amino}phenyl)pyridin-2-yl]carbonyl}-1,3-oxazolidin-2-one], the IC50 was less than 0.1 µM.

For `Cc1cc(Nc2nccc(C(F)(F)F)n2)cc(-c2ccc(C(C)(O)c3ccc(C(N)=O)cc3)nc2)c1` (stereo not shown) [Example 12.4, 4-{1-hydroxy-1-[5-(3-methyl-5-{[4-(trifluoromethyl)pyrimidin-2-yl]amino}phenyl)pyridin-2-yl]ethyl}benzamide], the IC50 is less than 0.1 µM.

On to `Cc1cc(Nc2nccc(C(F)(F)F)n2)cc(-c2ccc(N(C)CCO)nc2)c1` [Example 7.30, 2-{methyl[5-(3-methyl-5-{[4-(trifluoromethyl)pyrimidin-2-yl]amino}phenyl)pyridin-2-yl]amino}ethanol], for which the IC50 was less than 0.1 µM.

Turning to `Cc1cc(Nc2nccc(C(F)(F)F)n2)cc(-c2ccc(CC(=O)O)nc2)c1` [Example 3.1, 2-(5-(3-methyl-5-((4-(trifluoromethyl)pyrimidin-2-yl)amino)phenyl)pyridin-2-yl)acetic acid], the IC50 was less than 0.1 µM.

For `Cc1cc(Nc2nccc(C(F)(F)F)n2)cc(-c2ccc(NC(C)(C)c3nc(=O)o[nH]3)nc2)c1` [Example 18.10, 3-(2-{[5-(3-Methyl-5-{[4-(trifluoromethyl)pyrimidin-2-yl]amino}phenyl)pyridin-2-yl]amino}propan-2-yl)-1,2,4-oxadiazol-5(4H)-one], the IC50 was less than 0.1 µM.

As for `Cc1cc(Nc2nccc(C(F)(F)F)n2)cc(-c2ccc(NC3(C(=O)O)CCNCC3)nc2)c1` [Example 7.72, 4-{[5-(3-methyl-5-{[4-(trifluoromethyl)pyrimidin-2-yl]amino}phenyl)pyridin-2-yl]amino}piperidine-4-carboxylic acid], the IC50 was less than 0.1 µM.

For `Cc1cc(Nc2nccc(C)n2)cc(-c2ccc([C@]3(O)CC[C@H](C(=O)O)CC3)nc2)c1` [Example 9.38, trans-4-hydroxy-4-(5-{3-methyl-5-[(4-methylpyrimidin-2-yl)amino]phenyl}pyridin-2-yl)cyclohexanecarboxylic acid], the IC50 is less than 0.1 µM.

With `O=C(O)c1ccnc(-c2cccc(Nc3nccc(C(F)(F)F)n3)c2)c1` [Example 2.11, 2-(3-{[4-(trifluoromethyl)pyrimidin-2-yl]amino}phenyl)pyridine-4-carboxylic acid], the IC50 lay in the range of 0.1 to 1 µM.

`COC(=O)c1cncc(-c2cc(C)cc(Nc3nccc(C(F)(F)F)n3)c2)c1` [Example 2.53, methyl 5-(3-methyl-5-{[4-(trifluoromethyl)pyrimidin-2-yl]amino}phenyl)pyridine-3-carboxylate]: the IC50 fell in the range of 0.1 to 1 µM.

In the case of `COC(=O)c1ccc(-c2cc(C)cc(Nc3nccc(C(F)(F)F)n3)c2)cn1` [Example 2.65, methyl 5-(3-methyl-5-{[4-(trifluoromethyl)pyrimidin-2-yl]amino}phenyl)pyridine-2-carboxylate], the IC50 lay in the range of 0.1 to 1 µM.

For `Cc1cc(Nc2nccc(C(F)(F)F)n2)cc(-c2cnc3c(c2)CCN3)c1` [Example 2.47, N-[3-(2,3-dihydro-1H-pyrrolo[2,3-b]pyridin-5-yl)-5-methylphenyl]-4-(trifluoromethyl)pyrimidin-2-amine], the IC50 was less than 0.1 µM.

For `Cc1cc(Nc2nccc(C(F)(F)F)n2)cc(-c2cncc(F)c2)c1` [Example 4.3, N-[3-(5-fluoropyridin-3-yl)-5-methylphenyl]-4-(trifluoromethyl)pyrimidin-2-amine], the IC50 is less than 0.1 µM.

Take `CCOC(=O)CCc1ccnc(-c2cc(C)cc(Nc3nccc(C)n3)c2)c1` [Example 2.33, ethyl 3-(2-{3-methyl-5-[(4-methylpyrimidin-2-yl)amino]phenyl}pyridin-4-yl)propanoate]: the IC50 lay in the range of 0.1 to 1 µM.

Regarding `Cc1ccc(S(=O)(=O)Nc2ccc(-c3cccc(Nc4nccc(C(F)(F)F)n4)c3)nc2)cc1` [Example 2.9, 4-methyl-N-[6-(3-{[4-(trifluoromethyl)pyrimidin-2-yl]amino}phenyl)pyridin-3-yl]benzenesulfonamide], the IC50 lay within 0.1 to 1 µM.

Take `Cc1cc(Nc2nccc(C(F)(F)F)n2)cc(-c2ccnc(C3(O)CCC3)c2)c1` [Example 9.60, 1-[4-(3-methyl-5-{[4-(trifluoromethyl)pyrimidin-2-yl]amino}phenyl)pyridin-2-yl]cyclobutanol]: the IC50 was less than 0.1 µM.

As to `Cc1cc(Nc2nccc(C(F)(F)F)n2)cc(-c2ccc(C(=O)NCC3COCCO3)nc2)c1` (stereo not shown) [Example 16.31], the IC50 lay within 0.1 to 1 µM.
